From patent publication US7544675B2, “Chemical compounds with dual activity, processes for their preparation and pharmaceutical compositions” (UCB, S.A., priority 2002, dated 2009)

Columns and labels:
[1] = molecular target: T1, human m3 muscarinic receptor (Homo sapiens, UniProt P20309); test: Affinity for human muscarinic receptors ([3H]-NMS binding, CHO cell membranes); conditions: qualitative statement
T1 construct: expressed in transfected cells; host or cells: CHO (Chinese Hamster Ovarian) cells, crude membrane fraction
T1 sequence (P20309 whole entry): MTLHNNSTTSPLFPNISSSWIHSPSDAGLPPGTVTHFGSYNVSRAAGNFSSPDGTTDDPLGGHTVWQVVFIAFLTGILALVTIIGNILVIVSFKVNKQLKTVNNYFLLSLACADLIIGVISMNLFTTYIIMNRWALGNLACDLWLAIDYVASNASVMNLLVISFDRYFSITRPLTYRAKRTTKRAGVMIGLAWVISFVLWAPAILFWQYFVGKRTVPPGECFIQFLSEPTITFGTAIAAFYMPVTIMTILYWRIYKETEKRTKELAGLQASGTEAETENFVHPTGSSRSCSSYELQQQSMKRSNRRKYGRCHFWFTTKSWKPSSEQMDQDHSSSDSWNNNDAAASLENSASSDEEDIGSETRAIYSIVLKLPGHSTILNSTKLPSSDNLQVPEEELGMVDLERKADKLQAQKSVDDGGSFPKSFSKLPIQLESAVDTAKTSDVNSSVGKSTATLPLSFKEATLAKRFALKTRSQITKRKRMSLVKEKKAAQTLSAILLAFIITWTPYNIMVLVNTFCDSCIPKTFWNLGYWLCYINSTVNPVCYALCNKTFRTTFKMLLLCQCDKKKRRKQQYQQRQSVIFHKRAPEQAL
Experimental: Chinese Hamster Ovarian cells (CHO) expressing the human recombinant m1, m2, m3, m4 and m5 receptors were cultured in Ham's F12 media supplemented with 100 IU/ml of penicillin, 100 μg/ml of streptomycin, 400 μg/ml of geneticin and 5% of fetal bovine serum. Cell cultures were maintained in a humidified incubator at 37° C. and 5% CO2.
Confluent CHO cells expressing human m1, m2, m3, m4 and m5 muscarinic receptors were harvested and resuspended in phosphate buffered saline without calcium and magnesium. The cell suspension was centrifuged at 1500×g for 3 min (4° C.). The cell pellet was homogenized in a 15 mM Tris-HCl (pH 7.5) buffer containing 2 mM MgCl2, 0.3 mM EDTA and 1 mM EGTA. The crude membrane fraction was collected by two consecutive centrifugation steps at 40,000×g for 25 min (4° C.). The final pellet was resuspended, at a protein concentration ranging from 2 to 6 mg/ml, in a 7.5 mM Tris-HCl (pH 7.5) buffer containing 12.5 mM MgCl2, 0.3 mM EDTA, 1 mM EGTA and 250 mM sucrose and stored in liquid nitrogen.
Binding assays were performed according to procedure described in: Buckley N. J., Bonner T. I., Buckley C. M., Brann M. R., Mol. Pharmacol. (1989), 35, 469-476, but with slight modifications.
Briefly, 25 to 50 μg of membrane proteins were incubated at room temperature in 1 ml of a 50 mM Tris-HCl (pH 7.4) buffer containing 2 mM of MgCl2, 0.1 nM of [^3H]-NMS (N-methylscopolamine, 85 Ci/mmol, from Apbiotech, UK) and increasing concentrations of test compound dissolved in DMSO (1% final concentration). Non specific binding was measured in the presence of 1 μM atropine. After 60 (m2) or 120 (m3) min. incubation, assays were stopped by rapid vacuum filtration of the samples through glass fiber filters (Filtermat A, Wallac, Belgium) presoaked in 0.3% polyethyleneimine for at least 2 h. Samples were further rinsed with 8 ml of ice-cold 50 mM Tris-HCl (pH 7.4) buffer. Radioactivity trapped onto the filter was counted in a Betaplate counter (Wallac). Competition binding curves were analyzed by non-linear regression with XLfit software (UDBS, UK).

PDE IV = PDE IV enzymatic activity (SPA phosphodiesterase assay, cytosolic fraction from U937 cells); format: biochemical; conditions: qualitative statement
Experimental: Cytosolic fraction from U937 cells pre-stimulated for 4 h at 37° C. with a mixture of rolipram 30 μM and salbutamol 1 μM (Torphy T. J., Zhou H. L., Cieslinski L. B., J. Pharmacol. Exp. Ther. (1992), 263 (3), 1195-1205).
Assays were performed in 100 μL of 50 mM Tris HCl buffer (pH 7.4) containing 5 mM MgCl2, 2 mM EGTA, 20 nM of [^3H]-cAMP (40-60 Ci/mmol), the cytosolic fraction of 50,000 U937 cells and the appropriate concentration of test compound (usually 10 μM) dissolved in DMSO (final assay concentration not exceeding 1%). After 30 min incubation at room temperature, 0.5 mg of SPA yttrium silicate beads are added to each sample. Radioactivity bound to the beads (5′-AMP) is determined by liquid scintillation. Non PDE IV activity and/or non specific binding of the labeled substrate to the SPA beads is defined as the residual radioactivity remaining in the presence of rolipram 32 μM (non PDE IV activity represents about 40% of total activity). PDE IV activity is determined by subtracting the non PDE TV activity from the total activity.

SMILES	Dual high affinities: m3 receptor part [1]	Dual high affinities: PDE IV part (PDE IV)
Cc1c(NC2CC2)nc(C2CC2C)nc1N1CCCCCC1 (racemic) [Compound 65, 6-(1-azepanyl)-N-cyclopropyl-5-methyl-2-(2-methylcyclopropyl)-4-pyrimidinamine]	high affinities	high affinities
Cc1c(NC2CC2)nc(C2CC2C)nc1N1CCC(C)CC1 (racemic) [Compound 98, N-cyclopropyl-5-methyl-2-(2-methylcyclopropyl)-6-(4-methyl-1-piperidinyl)-4-pyrimidinamine]	high affinities	high affinities
Cc1c(NC2CC2)nc(C2CC2)nc1N1CCCCC1C (racemic) [Compound 177, N,2-dicyclopropyl-5-methyl-6-(2-methyl-1-piperidinyl)-4-pyrimidinamine]	high affinities	high affinities
Cc1c(NC2CC2)nc(C2CC2C)nc1N1CCCCCC1 (single isomer, unassigned) [Compound 67, 6-(1-azepanyl)-N-cyclopropyl-5-methyl-2-(2-methylcyclopropyl)-4-pyrimidinamine]	high affinities	high affinities
CC1CC1c1nc(NC2CCCCC2)cc(NC2CC2)n1 (single isomer, unassigned) [Compound 144, N^4-cyclohexyl-N^6-cyclopropyl-2-(2-methylcyclopropyl)-4,6-pyrimidinediamine]	high affinities	high affinities
Cc1c(NC2CC2)nc(C(C)C)nc1N1CCCCCC1 [Compound 64, 6-(1-azepanyl)-N-cyclopropyl-2-isopropyl-5-methyl-4-pyrimidinamine]	high affinities	high affinities
Cc1c(NC2CC2)nc(C2CC2)nc1N1CCC(C(F)(F)F)CC1 [Compound 77, N,2-dicyclopropyl-5-methyl-6-[4-(trifluoromethyl)piperidin-1-yl]-4-pyrimidinamine]	high affinities	high affinities
Cc1c(NC2CC2)nc(C2CC2)nc1N1CCC(F)(F)CC1 [Compound 78, N,2-dicyclopropyl-6-(4,4-difluoro-1-piperidinyl)-5-methyl-4-pyrimidinamine]	high affinities	high affinities
Cc1c(NC2CC2)nc(C2CC2)nc1N1CCC(C)(C)CC1 [Compound 79, N,2-dicyclopropyl-6-(4,4-dimethyl-1-piperidinyl)-5-methyl-4-pyrimidinamine]	high affinities	high affinities
CCC1CCN(c2nc(C3CC3)nc(NC3CC3)c2C)CC1 [Compound 86, N,2-dicyclopropyl-6-(4-ethyl-1-piperidinyl)-5-methyl-4-pyrimidinamine]	high affinities	high affinities
CCc1c(NC2CC2)nc(C2CC2)nc1N1CCC(C)CC1 [Compound 94, N,2-dicyclopropyl-5-ethyl-6-(4-methyl-1-piperidinyl)-4-pyrimidinamine]	high affinities	high affinities
Cc1c(NC2CC2)nc(C2CC2)nc1N1CCC(C)CC1 [Compound 95, N,2-dicyclopropyl-5-methyl-6-(4-methyl-1-piperidinyl)-4-pyrimidinamine]	high affinities	high affinities
C=C1CCN(c2nc(C3CC3)nc(NC3CC3)c2C)CC1 [Compound 106, N,2-dicyclopropyl-5-methyl-6-(4-methylene-1-piperidinyl)-4-pyrimidinamine]	high affinities	high affinities
Cc1c(NC2CC2)nc(C2CC2)nc1N1CC=CCC1 [Compound 112, N,2-dicyclopropyl-6-(3,6-dihydro-1(2H)-pyridinyl)-5-methyl-4-pyrimidinamine]	high affinities	high affinities
Cc1c(NC2CC2)nc(C2CC2)nc1N1CC2CCC(C2)C1 [Compound 115, 6-(3-azabicyclo[3.2.1]oct-3-yl)-N,2-dicyclopropyl-5-methyl-4-pyrimidinamine]	high affinities	high affinities
CCc1c(NC2CC2)nc(C2CC2)nc1N1CCSCC1 [Compound 118, N,2-dicyclopropyl-5-ethyl-6-(4-thiomorpholinyl)-4-pyrimidinamine (1:1)]	high affinities	high affinities
Cc1c(NC2CC2)nc(C2CC2)nc1N1CCSCC1 [Compound 119, N,2-dicyclopropyl-5-methyl-6-(4-thiomorpholinyl)-4-pyrimidinamine]	high affinities	high affinities

Now from value to molecule, other results behind:

Dual high affinities: m3 receptor part [1]	SMILES	Dual high affinities: PDE IV part (PDE IV)
high affinities	Cc1c(NC2CC2)nc(C2CCC2)nc1N1CCCCCC1 [Compound 55, 6-(1-azepanyl)-2-cyclobutyl-N-cyclopropyl-5-methyl-4-pyrimidinamine]	high affinities
high affinities	Cc1c(NC2CC2)nc(C2CC2)nc1N1CCCCCC1 [Compound 56, 6-(1-azepanyl)-N,2-dicyclopropyl-5-methyl-4-pyrimidinamine]	high affinities
high affinities	Clc1c(NC2CC2)nc(C2CC2)nc1N1CCCCCC1 [Compound 59, 6-(1-azepanyl)-5-chloro-N,2-dicyclopropyl-4-pyrimidinamine]	high affinities
high affinities	Fc1c(NC2CC2)nc(C2CC2)nc1N1CCCCCC1 [Compound 60, 6-(1-azepanyl)-N,2-dicyclopropyl-5-fluoro-4-pyrimidinamine]	high affinities
high affinities	Brc1c(NC2CC2)nc(C2CC2)nc1N1CCCCCC1 [Compound 61, 6-azepan-1-yl-5-bromo-N,2-dicyclopropyl-4-pyrimidinamine]	high affinities
high affinities	c1c(NC2CC2)nc(C2CC2)nc1N1CCCCCC1 [Compound 62, 6-(1-azepanyl)-N,2-dicyclopropyl-4-pyrimidinamine]	high affinities
high affinities	Nc1c(NC2CC2)nc(C2CC2)nc1N1CCCCCC1 [Compound 63, 6-(1-azepanyl)-N^4,2-dicyclopropyl-4,5-pyrimidinediamine]	high affinities
high affinities	Cc1c(NC2CC2)nc(C2CC2)nc1N1CCCCCCC1 [Compound 72, 6-(1-azocanyl)-N,2-dicyclopropyl-5-methyl-4-pyrimidinamine]	high affinities
